Assay [1] relates to NF-κB pathway (SEAP) in THP1-Dual cells. The experiment in a line: THP-1 Dual cell SEAP assay (L18-MDP stimulated). It counts as cell-based. The note with it: read-out: NFkB THP1 IC50.
Assay [2] deals with GST-RIPK2 fusion protein (human RIPK2 amino acids 1-310) (Homo sapiens (Human), UniProt O43353). The experiment in a line: RIPK2 binding competition assay (TR-FRET, Tracer 199). On the technique in general: Time-resolved FRET reads energy transfer from a long-lived donor to a nearby acceptor.
[3] abbreviates: read-out: RIPK2 IC50, RIPK2 binding competition assay.

Like-named read-outs stand apart in the source and are kept apart here.

As usually defined, the IC50 is the concentration that gives 50% inhibition.

Chain of GST-RIPK2 fusion protein (human RIPK2 amino acids 1-310) (O43353 1-310): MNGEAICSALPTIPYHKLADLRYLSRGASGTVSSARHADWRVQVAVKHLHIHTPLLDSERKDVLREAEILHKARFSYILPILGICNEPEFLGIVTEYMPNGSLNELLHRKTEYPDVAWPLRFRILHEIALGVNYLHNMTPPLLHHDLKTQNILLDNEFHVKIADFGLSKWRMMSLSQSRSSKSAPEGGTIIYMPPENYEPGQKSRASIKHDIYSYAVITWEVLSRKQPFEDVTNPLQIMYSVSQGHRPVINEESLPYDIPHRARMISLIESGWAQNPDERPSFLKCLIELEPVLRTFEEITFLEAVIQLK

For `COc1cc2ncc(-c3cc(F)c(C#N)c(F)c3)n2cc1S(=O)(=O)C(C)(C)C` [Example 3, 4-(6-(tert-butylsulfonyl)-7-methoxyimidazo[1,2-a]pyridin-3-yl)-2,6-difluorobenzonitrile], the IC50 is > 1000 nM in assay [1] (Homo sapiens, THP1-Dual) and > 20 nM in assay [2] (setting [3]).

For `CC(C)(C)S(=O)(=O)c1ccn2ncc(-c3ccc(N)nc3)c2c1` [Example 26, 5-(5-(tert-butylsulfonyl)pyrazolo [1,5-a]pyridin-3-yl)pyridin-2-amine], the IC50 is > 1000 nM in assay [1] (Homo sapiens, THP1-Dual) and > 20 nM in assay [2] (setting [3]).

Regarding `COc1cc2ncc(-c3cc(F)c(N)nc3F)n2cc1S(=O)(=O)C(C)(C)CF` [Example 123, 3,6-difluoro-5-[5-(2-fluoro-1,1-dimethylethylsulfonyl)-6-methoxy-1,3a-diaza-3-indenyl]-2-pyridylamine], the IC50 in assay [1] (Homo sapiens, THP1-Dual) was > 1000 nM; in assay [2] (setting [3]) it was > 20 nM.

With `COc1cc2ncc(-c3cc(F)nc(NCc4ccn(C)c(=O)c4)c3)n2cc1S(=O)(=O)C(C)(C)C` [Example 196, 4-(((4-(6-(tert-butylsulfonyl)-7-methoxyimidazo[1,2-a]pyridin-3-yl)-6-fluoropyridin-2-yl)amino)methyl)-1-methylpyridin-2(1H)-one], the IC50 in assay [1] (Homo sapiens, THP1-Dual) is < 50 nM; in assay [2], 1 to 2.5 nM.

In the case of `COc1cc2ncc(-c3cc(F)nc(NCCCO)c3)n2cc1S(=O)(=O)C(C)(C)C` [Example 183, 3-((4-(6-(tert-butylsulfonyl)-7-methoxyimidazo[1,2-a]pyridin-3-yl)-6-fluoropyridin-2-yl)amino)propan-1-ol], the IC50 in assay [1] (Homo sapiens, THP1-Dual) was < 50 nM; in assay [2] (setting [3]), < 1 nM.

For the compound `COc1cc2ncc(-c3ccc(F)nc3F)n2cc1S(=O)(=O)C(C)(C)C` [Example 9, 6-(tert-butylsulfonyl)-3-(2,6-difluoropyridin-3-yl)-7-methoxyimidazo[1,2-a]pyridine], the IC50 was > 1000 nM in assay [1] (Homo sapiens, THP1-Dual) and > 20 nM in assay [2] (setting [3]).

Turning to `COc1cc2ncc(-c3cc(F)nc(NCCCO)c3)n2cc1C(=O)N(C)C` [Example 248, 3-{2-fluoro-6-[(3-hydroxypropyl)amino]pyridin-4-yl}-7-methoxy-N,N-dimethylimidazo[1,2-a]pyridine-6-carboxamide], the IC50 in assay [1] (Homo sapiens, THP1-Dual) was in the range of 50 to 250 nM; in assay [2] it was 2.5 to 20 nM.

Consider `COc1cc2ncc(-c3ccc(N)c(Cl)c3F)n2cc1S(=O)(=O)C(C)(C)C` [Example 86, 4-(6-(tert-butylsulfonyl)-7-methoxyimidazo[1,2-a]pyridin-3-yl)-2-chloro-3-fluoroaniline], for which the IC50 in assay [1] (Homo sapiens, THP1-Dual) is > 1000 nM; in assay [2], 2.5 to 20 nM.

On to `COc1cc2ncc(-c3cnc(N)cn3)n2cc1S(=O)(=O)C(C)(C)C` [Example 103, 5-(6-(tert-butylsulfonyl)-7-methoxyimidazo[1,2-a]pyridin-3-yl)pyrazin-2-amine], for which the IC50 is > 1000 nM in assay [1] (Homo sapiens, THP1-Dual) and > 20 nM in assay [2] (setting [3]).

Turning to `CCCS(=O)(=O)Nc1cc(-c2cnc3ccccn23)cc(F)c1OC` [Example 144, N-(3-fluoro-5-(imidazo[1,2-a]pyridin-3-yl)-2-methoxyphenyl) propane-1-sulfonamide], the IC50 was > 1000 nM in assay [1] (Homo sapiens, THP1-Dual) and > 20 nM in assay [2] (setting [3]).

Regarding `COc1cc2ncc(-c3cc(F)nc(NCCC(C)O)c3)n2cc1S(=O)(=O)C(C)(C)C` (single isomer, unassigned) [Example 170, 4-((4-(6-(tert-butylsulfonyl)-7-methoxyimidazo[1,2-a]pyridin-3-yl)-6-fluoropyridin-2-yl)amino)butan-2-ol], the IC50 was < 50 nM in assay [1] and < 1 nM in assay [2] (setting [3]).

Consider `CCCS(=O)(=O)Nc1cc(-c2cnc3cc(OCC)c(S(=O)(=O)C(C)C)cn23)ccc1OC` [Example 133, N-{5-[7-ethoxy-6-(propane-2-sulfonyl)imidazo[1,2-a]pyridin-3-yl]-2-methoxyphenyl}propane-1-sulfonamide], for which the IC50 lay within 250 to 1000 nM in assay [1] (Homo sapiens, THP1-Dual) and 2.5 to 20 nM in assay [2].

On to `COc1cc2ncc(-c3ccc(N)nc3F)n2cc1S(=O)(=O)C(C)(C)C` [Example 14, 5-(6-(tert-butylsulfonyl)-7-methoxyimidazo[1,2-a]pyridin-3-yl)-6-fluoropyridin-2-amine], for which the IC50 in assay [1] (Homo sapiens, THP1-Dual) is > 1000 nM; in assay [2] (setting [3]) it was > 20 nM.

Turning to `COc1cc2ncc(-c3cc(F)c(OC)c(NCCNC(=O)OC(C)(C)C)c3)n2cc1S(=O)(=O)C(C)(C)C` [Example 308, tert-butyl (2-((5-(6-(tert-butylsulfonyl)-7-methoxyimidazo[1,2-a]pyridin-3-yl)-3-fluoro-2-methoxyphenyl)amino)ethyl)carbamate], the IC50 fell in the range of 50 to 250 nM in assay [1] (Homo sapiens, THP1-Dual) and 1 to 2.5 nM in assay [2].

As to `CCS(=O)(=O)Nc1cc(-c2cnc3cc(OC)c(S(=O)(=O)C(C)(C)C)cn23)cc(F)c1OC` [Example 294, N-(5-(6-(tert-butylsulfonyl)-7-methoxyimidazo[1,2-a]pyridin-3-yl)-3-fluoro-2-methoxyphenyl)ethane-sulfonamide], the IC50 was < 50 nM in assay [1] (Homo sapiens, THP1-Dual) and < 1 nM in assay [2].

With `COc1cc2ncc(-c3cc(F)c(OC)c(NCCN)c3)n2cc1S(=O)(=O)C(C)(C)C` [Example 329, N1-(5-(6-(tert-butylsulfonyl)-7-methoxyimidazo[1,2-a]pyridin-3-yl)-3-fluoro-2-methoxyphenyl) ethane-1,2-diamine], the IC50 in assay [1] (Homo sapiens, THP1-Dual) was 250 to 1000 nM; in assay [2], 2.5 to 20 nM.

For `CNc1ccc(-c2cnc3cc(OC)c(S(=O)(=O)C(C)(C)C)cn23)cn1` [Example 69, 5-(6-(tert-butylsulfonyl)-7-methoxyimidazo[1,2-a]pyridin-3-yl)-N-methylpyridin-2-amine], the IC50 in assay [1] (Homo sapiens, THP1-Dual) was > 1000 nM; in assay [2] (setting [3]), > 20 nM.

Regarding `COc1cc2ncc(-c3cccc(NS(=O)(=O)CC(C)C)c3)n2cc1S(=O)(=O)C(C)(C)C` [Example 280, N-(3-(6-(tert-butylsulfonyl)-7-methoxyimidazo[1,2-a]pyridin-3-yl)phenyl)-2-methylpropane-1-sulfonamide], the IC50 in assay [1] (Homo sapiens, THP1-Dual) lay in the range of 250 to 1000 nM; in assay [2], 1 to 2.5 nM.

Take `COc1cc2ncc(-c3cc(N)c(OC)c(C#N)c3)n2cc1S(=O)(=O)C(C)(C)C` [Example 51, 3-amino-5-(6-(tert-butylsulfonyl)-7-methoxyimidazo[1,2-a]pyridin-3-yl)-2-methoxybenzonitrile]: the IC50 in assay [1] (Homo sapiens, THP1-Dual) was > 1000 nM; in assay [2] (setting [3]) it was > 20 nM.

As to `COc1cc2ncc(-c3cc(C)c(OC)c(N)n3)n2cc1S(=O)(=O)C(C)(C)C` [Example 335, 6-(6-(tert-butylsulfonyl)-7-methoxyimidazo[1,2-a]pyridin-3-yl)-3-methoxy-4-methylpyridin-2-amine], the IC50 was > 1000 nM in assay [1] (Homo sapiens, THP1-Dual) and > 20 nM in assay [2].

As for `COc1cc2ncc(-c3cc(Cl)nc(NCCCO)c3)n2cc1S(=O)(=O)C(C)(C)C` [Example 327, 3-((4-(6-(tert-butylsulfonyl)-7-methoxyimidazo[1,2-a]pyridin-3-yl)-6-chloropyridin-2-yl)amino)propan-1-ol], the IC50 in assay [1] (Homo sapiens, THP1-Dual) is < 50 nM; in assay [2], 1 to 2.5 nM.

Take `COc1cc2ncc(-c3csnc3OC)n2cc1S(=O)(=O)C(C)(C)C` [Example 60, 4-(6-(tert-butylsulfonyl)-7-methoxyimidazo[1,2-a]pyridin-3-yl)-3-methoxyisothiazole]: the IC50 was > 1000 nM in assay [1] (Homo sapiens, THP1-Dual) and 2.5 to 20 nM in assay [2].

For `COc1cc2ncc(-c3ccc(N4CCCC4=O)nc3)n2cc1S(=O)(=O)C(C)(C)C` [Example 67, 1-(5-(6-(tert-butylsulfonyl)-7-methoxyimidazo[1,2-a]pyridin-3-yl)pyridin-2-yl)pyrrolidin-2-one], the IC50 in assay [1] (Homo sapiens, THP1-Dual) was > 1000 nM; in assay [2] (setting [3]), > 20 nM.

Regarding `COc1cc2ncc(-c3cc(F)nc(NC[C@H](O)CO)c3)n2cc1S(=O)(=O)C(C)(C)C` [Example 203, (S)-3-((4-(6-(tert-butylsulfonyl)-7-methoxyimidazo[1,2-a]pyridin-3-yl)-6-fluoropyridin-2-yl)amino)propane-1,2-diol], the IC50 lay within 50 to 250 nM in assay [1] (Homo sapiens, THP1-Dual) and 1 to 2.5 nM in assay [2].

`CCCS(=O)(=O)Nc1cc(-c2cnc3cc(OC)c(C(=O)N(C)C)cn23)cc(OC)c1OC` [Example 137, 3-[3,4-dimethoxy-5-(propane-1-sulfonamido)phenyl]-7-methoxy-N,N-dimethylimidazo[1,2-a]pyridine-6-carboxamide]: the IC50 fell in the range of 250 to 1000 nM in assay [1] (Homo sapiens, THP1-Dual) and 2.5 to 20 nM in assay [2].

Turning to `COc1cc2ncc(-c3ccc(NS(C)(=O)=O)nc3)n2cc1S(=O)(=O)C(C)(C)C` [Example 148, N-(5-(6-(tert-butylsulfonyl)-7-methoxyimidazo[1,2-a]pyridin-3-yl)pyridin-2-yl)methanesulfonamide], the IC50 in assay [1] (Homo sapiens, THP1-Dual) was > 1000 nM; in assay [2] (setting [3]) it was > 20 nM.

As for `COc1cc2ncc(-c3cc(N)cc(OC(F)F)c3)n2cc1S(=O)(=O)C(C)(C)C` [Example 42, 3-(6-(tert-butylsulfonyl)-7-methoxyimidazo[1,2-a]pyridin-3-yl)-5-(difluoromethoxy)aniline], the IC50 lay in the range of 250 to 1000 nM in assay [1] (Homo sapiens, THP1-Dual) and 2.5 to 20 nM in assay [2].

On to `COc1cc2ncc(-c3ccc(OC)c(Cl)n3)n2cc1S(=O)(=O)C(C)(C)C` [Example 158, 6-(tert-butylsulfonyl)-3-(6-chloro-5-methoxypyridin-2-yl)-7-methoxyimidazo[1,2-a]pyridine], for which the IC50 was > 1000 nM in assay [1] (Homo sapiens, THP1-Dual) and > 20 nM in assay [2] (setting [3]).

With `COc1cc2ncc(-c3ccc(OC(F)(F)F)c(N)n3)n2cc1S(=O)(=O)C(C)(C)C` [Example 334, 6-(6-(tert-butylsulfonyl)-7-methoxyimidazo[1,2-a]pyridin-3-yl)-3-(trifluoromethoxy)pyridin-2-amine], the IC50 in assay [1] (Homo sapiens, THP1-Dual) is > 1000 nM; in assay [2] (setting [3]) it was > 20 nM.

`CCCS(=O)(=O)Nc1cc(-c2cnc3cc(OC)c(S(=O)(=O)C(C)(C)C)cn23)cc(OC)c1C` [Example 136, N-(5-(6-(tert-Butylsulfonyl)-7-methoxyimidazo[1,2-a]pyridin-3-yl)-3-methoxy-2-methylphenyl)propane-1-sulfonamide]: the IC50 is > 1000 nM in assay [1] (Homo sapiens, THP1-Dual) and 2.5 to 20 nM in assay [2].

For the origin of these results see patent US20250346593A1, “IMIDAZO(1,2-1)PYRIDINE DERIVATIVES AS RIPK2 INHIBITORS” (Interline Therapeutics, Inc., priority 2022, published 2025).
